# Measured values: US12116636B2, “Methods for evaluating tumor cell spheroids using 3D microfluidic cell culture device” (Dana-Farber Cancer Institute, Inc., priority 2017, dated 2024)
# Columns and labels:
# [1] = tested on: MC38 MDOTS; assay: Live/dead (AO/PI) staining of MDOTS in 3D microfluidic culture; type: cell-based, murine; details: Cmpd1 1 μM + αPD-1, 5 days; not significant vs single-agent PD-1
# Procedure: (§1) Fresh tumor specimens (murine and human patients) were received in media (DMEM) on ice and minced in a 10 cm dish (on ice) using sterile forceps and scalpel. Minced tumor was resuspended in DMEM (4.5 mM glucose, […] sodium pyruvate, 1:100 penicillin-streptomycin) (Coming CellGro, Manassas, VA)+10% FBS (Gemini Bio-Products, West Sacramento, CA), 100 U/mL collagenase type IV (Life Technologies, Carlsbad, CA), and 15 mM HEPES (Life Technologies, Carlsbad, CA), except for CT26 tumors that were prepared in RPMI. Samples were pelleted and resuspended in 10-20 mL media. Red blood cells were removed from visibly bloody samples using RBC Lysis Buffer (Boston Bio-Products, Ashland, MA). […]
# Dual labeling was performed by loading microfluidic device with Nexcelom ViaStain™ (fluorescent cell viability dye) AO/PI Staining Solution (Nexcelom, CS2-0106). Following incubation with the dyes (20 minutes at room temperature in the dark), images were captured on a Nikon Eclipse 80i fluorescence microscope equipped with Z-stack (Prior) and CoolSNAP CCD camera (Roper Scientific). […] Live and dead cell quantitation was performed by measuring total cell area of each dye. […]
# [2] = tested on: CT26 allograft; assay: In vivo Compound 1 combination treatment, allograft; parameters: species or system Balb/c mice; details: Compound 1 40 mg/kg oral daily + anti-PD-L1 10 mg/kg every 5 days
# Procedure: (§2) Combination studies were performed by vivoPharm (Hummelstown, PA, USA). All procedures used in the performance of these studies were carried out in accordance with vivoPharm's Standard Operating Procedures, with particular reference to US_SOPvP_EF0314 “General Procedures for Efficacy Studies.” CT26 colon carcinoma cells (1×10^6 cells/mouse in 100 μL, passage 2-3) were re-suspended in serum-free DMEM and implanted in the upper right flank of 11-12 week old female Balb/c mice (Charles River Laboratories). Mice were randomized into four groups of 10 using a matched pair distribution method based on tumor size for CT26. Treatment was initiated 12 days post-inoculation with mean tumor volume at start of dosing of 125.85 mm^3. Vehicle or Compound 1 (40 mg/kg) was administered by oral gavage daily for 26 days and isotype control or a reverse chimera anti-PD-L1 cloned from literature reports (e.g., Deng, R. et al. MAbs (2016), the content of which is incorporated herein by reference in entirety) and placed into a mouse IgG1 framework (10 mg/kg) was administered every 5 days for a total of six doses. Investigators were not blinded to treatment groups. […] Mice were scarified on Day 13 and lung metastases were quantified (small≤1 mm, medium>1 mm and ≤3 mm, large>3 mm). No large lung metastases were detected.
# [3] = tested on: CT26 spheroids (lacking immune cells); assay: Cytokine profiling of cell line spheroids lacking immune cells; type: cell-based, murine; details: Day 1, 3, 6 vs vehicle
# Procedure: as §1
# Two multiplex assays were performed utilizing a bead-based immunoassay approach, the Bio-Plex Pro™ Human Cytokine 40-plex Assay (Cat #171AK99MR2) and Bio-Plex Pro™ Mouse Cytokine Panel 1, 23-plex (Cat #M60009RDPD) on a Bio-plex 200 system (Cat #171000201). […] Fold changes relative to the MDOT/PDOT control were calculated and plotted as log 2FC. Lower and upper limits of quantitation (LLOQ/ULOQ) were imputed from standard curves for cytokines above or below detection. […]
# [4] = tested on: B16F10 lung metastases; assay: B16F10 tail vein injection model, lung metastases; type: in vivo, mice; details: Compound 1 40 mg/kg daily 13 days ± anti-PD-L1 10 mg/kg
# Procedure: as §2
smiles,measurement,setting,value
"N#Cc1cc(-c2ncnc(Nc3ccc(N4CCN(C5COC5)CC4)cc3)n2)ccc1OC1CCOCC1 [Compound 1, 5-(4-((4-(4-(oxetan-3-yl)piperazin-1-yl)phenyl)amino)-1,3,5-triazin-2-yl)-2-((tetrahydro-2H-pyran-4-yl)oxy)benzonitrile]","ex vivo killing of MC38 MDOTS, combination treatment",[1],enhanced
same,"survival, CT26 allograft, combination vs Cmpd1 or anti-PD-L1 alone",[2],longer survival
same,"tumour control, CT26 allograft, combination vs Cmpd1 or anti-PD-L1 alone",[2],greater tumour control
same,immune suppressive cytokine elaboration by CT26 cell line spheroids,[3],effectively blocked
same,sensitization of B16F10 tail vein injection model (lung metastases),[4],could not be sensitized
